Assay results: ChEMBL document CHEMBL4420076, “Amylin and calcitonin receptor agonist” (2017)
Numbered stars: 1 amine (or outer) side, 2 acyl side, 3 side chain; on linkers, the order of the positions; unused ones are H or OH. Peptide text beside a SMILES is read from it. * marks the point of attachment. C20 diacid = O=C(O)CCCCCCCCCCCCCCCCCCC(=O)*; γGlu = O=C(O)[C@H](CCC(=O)[*:2])N[*:1]; AEEA = NCCOCCOCC(=O)O

Legend:
[1] = target: T1, Amylin receptor AMY3; CALCR/RAMP3 (Homo sapiens, UniProt O60896+P30988); assay: Agonist activity at human amylin receptor expressed in BHK570 cells co-expressing RAMP3 assessed as increase in intracellular cAMP concentration incubated for 3 hrs in absence of albumin by CRE luciferase reporter gene assay; assay type: functional, cell-based
T1 sequence (P30988 whole entry): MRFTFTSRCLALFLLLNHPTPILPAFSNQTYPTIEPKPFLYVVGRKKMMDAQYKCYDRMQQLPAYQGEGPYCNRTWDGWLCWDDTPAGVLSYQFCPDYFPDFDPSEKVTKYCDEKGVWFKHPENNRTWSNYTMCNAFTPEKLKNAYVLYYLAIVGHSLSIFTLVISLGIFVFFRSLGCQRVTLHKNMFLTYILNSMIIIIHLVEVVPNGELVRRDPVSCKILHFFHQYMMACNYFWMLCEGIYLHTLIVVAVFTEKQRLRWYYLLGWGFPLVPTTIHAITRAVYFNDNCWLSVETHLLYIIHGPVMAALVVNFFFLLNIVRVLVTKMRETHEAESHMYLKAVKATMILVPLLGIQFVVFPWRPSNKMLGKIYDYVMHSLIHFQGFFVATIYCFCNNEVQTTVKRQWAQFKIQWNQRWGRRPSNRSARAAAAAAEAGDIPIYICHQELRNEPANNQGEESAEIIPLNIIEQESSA
T1 sequence (O60896 whole entry): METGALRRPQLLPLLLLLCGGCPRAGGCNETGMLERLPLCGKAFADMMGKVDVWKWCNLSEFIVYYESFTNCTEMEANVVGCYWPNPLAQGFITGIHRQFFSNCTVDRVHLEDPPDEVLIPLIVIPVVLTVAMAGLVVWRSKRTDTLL

[2] = Stability in pH 7.5 buffer assessed as compound recovery at 1 uM by Thioflavin T based fluorescence assay; assay type: physicochemical; settings: read-out: Drug recovery
[3] = target: T1, Amylin receptor AMY3; CALCR/RAMP3; assay: Agonist activity at human amylin receptor expressed in BHK570 cells co-expressing RAMP3 assessed as increase in intracellular cAMP concentration incubated for 3 hrs in presence of 10% FBS by CRE luciferase reporter gene assay; assay type: functional, cell-based
[4] = Solubility in 100 mM glycylglycine buffer at pH 3.0 incubated for 18 hrs by UPLC analysis; assay type: physicochemical
Rattus norvegicus = assay: Reduction in food intake in Sprague-Dawley rat at 3 nmol/kg measured 24 to 48 hrs post dose relative to control; assay type: functional; parameters: scale not given: the % may be the effect or the level left
Calcitonin receptor [5] = target: T2, Calcitonin receptor (Homo sapiens, UniProt P30988); assay: Agonist activity at human calcitonin receptor expressed in BHK570 cells assessed as increase in intracellular cAMP concentration incubated for 3 hrs in absence of albumin by CRE luciferase reporter gene assay; assay type: functional, cell-based
T2 sequence (P30988 whole entry): T1 sequence (P30988 whole entry)

Calcitonin receptor [6] = target: T2, Calcitonin receptor; assay: Agonist activity at human calcitonin receptor expressed in BHK570 cells assessed as increase in intracellular cAMP concentration incubated for 3 hrs in presence of 10% FBS by CRE luciferase reporter gene assay; assay type: functional, cell-based
[7] = Stability in pH 7.5 buffer assessed as lag time for fibril formation at 1 uM by Thioflavin T based fluorescence assay; assay type: physicochemical; settings: pH 7.5, 1 µM
[8] = Solubility in 100 mM bistrispropane buffer at pH 7.0 incubated for 18 hrs by UPLC analysis; assay type: physicochemical
[9] = Solubility in 100 mM bistrispropane buffer at pH 6.0 incubated for 18 hrs by UPLC analysis; assay type: physicochemical
[10] = Solubility in 100 mM glycylglycine buffer at pH 5.0 incubated for 18 hrs by UPLC analysis; assay type: physicochemical
[11] = Solubility in 100 mM bistrispropane buffer at pH 8.0 incubated for 18 hrs by UPLC analysis; assay type: physicochemical
[12] = Solubility in 100 mM glycylglycine buffer at pH 4.0 incubated for 18 hrs by UPLC analysis; assay type: physicochemical
[13] = Solubility in 100 mM bistrispropane buffer at pH 6.5 incubated for 18 hrs by UPLC analysis; assay type: physicochemical
[14] = Solubility in 100 mM bistrispropane buffer at pH 7.5 incubated for 18 hrs by UPLC analysis; assay type: physicochemical
[15] = target: T1, Amylin receptor AMY3; CALCR/RAMP3; assay: Displacement of [125I]-labeled rat amylin from human amylin receptor expressed in BHK tkts13 whole cells co-expressing RAMP3 incubated for 60 mins by scintillation proximity assay; assay type: cell-based

| SMILES | EC50 [1] | remaining at 1 µM [2] | EC50 [3] | solubility at 18 h [4] | EC50 (Calcitonin receptor [5]) | EC50 (Calcitonin receptor [6]) | Time [7] | solubility at 18 h [8] | solubility at 18 h [9] | solubility at 18 h [10] | solubility at 18 h [11] | solubility at 18 h [12] | solubility at 18 h [13] | solubility at 18 h [14] | IC50 [15] | Activity (Rattus norvegicus) |
| --- | --- | --- | --- | --- | --- | --- | --- | --- | --- | --- | --- | --- | --- | --- | --- | --- |
| CC(C)C[C@H](NC(=O)CNC(=O)[C@H](CO)NC(=O)[C@H](C)NC(=O)CC[C@H](NC(=O)CCCCCCCCCCCCCCCCCCC(=O)O)C(=O)O)C(=O)N[C@@H](CO)C(=O)N[C@H](C(=O)N[C@@H](C)C(=O)N[C@H](C(=O)N[C@@H](CC(C)C)C(=O)NCC(=O)N[C@@H](CCCNC(=N)N)C(=O)N[C@@H](CC(C)C)C(=O)N[C@@H](CO)C(=O)N[C@@H](CCC(N)=O)C(=O)N[C@@H](CCC(=O)O)C(=O)N[C@@H](CC(C)C)C(=O)N[C@@H](Cc1cnc[nH]1)C(=O)N[C@@H](CCC(=O)O)C(=O)N[C@@H](CC(C)C)C(=O)N[C@@H](CCC(N)=O)C(=O)N[C@H](C(=O)N[C@@H](Cc1ccc(O)cc1)C(=O)N1CCC[C@H]1C(=O)N[C@@H](CCCNC(=N)N)C(=O)N[C@H](C(=O)N[C@@H](CCC(=O)O)C(=O)N[C@H](C(=O)NCC(=O)N[C@@H](CO)C(=O)NCC(=O)N[C@H](C(=O)N[C@@H](Cc1ccc(O)cc1)C(N)=O)[C@@H](C)O)[C@@H](C)O)[C@@H](C)O)[C@@H](C)O)C(C)C)[C@@H](C)O | 0.057 nM | 23% | 0.105 nM | ≥ 200 µM | 0.065 nM | 0.054 nM | 0 h | – | – | – | – | – | – | – | – | 15% |
| CC(C)C[C@H](NC(=O)[C@H](C)NC(=O)[C@H](C)NC(=O)[C@@H](NC(=O)[C@H](CO)NC(=O)[C@H](CC(C)C)NC(=O)[C@H](CCC(=O)O)NC(=O)[C@H](CO)NC(=O)[C@H](C)NC(=O)CC[C@H](NC(=O)CCCCCCCCCCCCCCCCCCC(=O)O)C(=O)O)[C@@H](C)O)C(=O)NCC(=O)N[C@@H](CCCCN)C(=O)N[C@@H](CC(C)C)C(=O)N[C@@H](CO)C(=O)N[C@@H](C)C(=O)N[C@@H](CCC(=O)O)C(=O)N[C@@H](CC(C)C)C(=O)N[C@@H](Cc1cnc[nH]1)C(=O)N[C@@H](CCC(=O)O)C(=O)N[C@@H](CC(C)C)C(=O)N[C@@H](C)C(=O)N[C@H](C(=O)N[C@@H](Cc1ccc(O)cc1)C(=O)N1CCC[C@H]1C(=O)N[C@@H](CCCCN)C(=O)N[C@H](C(=O)N[C@@H](CCC(=O)O)C(=O)N[C@H](C(=O)NCC(=O)N[C@@H](CO)C(=O)NCC(=O)N[C@@H](CO)C(=O)N[C@@H](Cc1ccc(O)cc1)C(N)=O)[C@@H](C)O)[C@@H](C)O)[C@@H](C)O ({C20 diacid-γGlu}-ASELSTAALGKLSAELHELATYPKTETGSGSY-NH2) | 0.051 nM | 100% | 0.093 nM | ≥ 200 µM | 0.037 nM | 0.073 nM | 0 h | ≥ 200 µM | ≥ 200 µM | ≥ 200 µM | ≥ 200 µM | ≥ 200 µM | ≥ 200 µM | ≥ 200 µM | 0.588 nM | – |
| CC(C)C[C@H](NC(=O)[C@H](C)NC(=O)[C@H](C)NC(=O)[C@@H](NC(=O)[C@H](CO)NC(=O)[C@H](CC(C)C)NC(=O)[C@H](CCC(=O)O)NC(=O)[C@H](CO)NC(=O)[C@H](C)NC(=O)CC[C@H](NC(=O)CCCCCCCCCCCCCCCCCCC(=O)O)C(=O)O)[C@@H](C)O)C(=O)NCC(=O)N[C@@H](CCCNC(=N)N)C(=O)N[C@@H](CC(C)C)C(=O)N[C@@H](CO)C(=O)N[C@@H](C)C(=O)N[C@@H](CCC(=O)O)C(=O)N[C@@H](CC(C)C)C(=O)N[C@@H](Cc1cnc[nH]1)C(=O)N[C@@H](CCC(=O)O)C(=O)N[C@@H](CC(C)C)C(=O)N[C@@H](C)C(=O)N[C@H](C(=O)N[C@@H](CC(C)C)C(=O)N1CCC[C@H]1C(=O)N[C@@H](CCCNC(=N)N)C(=O)N[C@H](C(=O)N[C@@H](CCC(=O)O)C(=O)N[C@H](C(=O)NCC(=O)N[C@@H](CO)C(=O)NCC(=O)N[C@@H](CO)C(=O)NCC(N)=O)[C@@H](C)O)[C@@H](C)O)[C@@H](C)O ({C20 diacid-γGlu}-ASELSTAALGRLSAELHELATLPRTETGSGSG-NH2) | 0.142 nM | 100% | 0.435 nM | ≥ 200 µM | 0.066 nM | 0.239 nM | > 45 h | ≥ 200 µM | ≥ 200 µM | ≥ 200 µM | ≥ 200 µM | ≥ 200 µM | ≥ 200 µM | ≥ 200 µM | 4.36 nM | – |

Second part, led by results:

| EC50 [1] | remaining at 1 µM [2] | EC50 [3] | solubility at 18 h [4] | EC50 (Calcitonin receptor [5]) | EC50 (Calcitonin receptor [6]) | Time [7] | solubility at 18 h [8] | solubility at 18 h [9] | solubility at 18 h [10] | solubility at 18 h [11] | solubility at 18 h [12] | solubility at 18 h [13] | solubility at 18 h [14] | IC50 [15] | SMILES | Activity (Rattus norvegicus) |
| --- | --- | --- | --- | --- | --- | --- | --- | --- | --- | --- | --- | --- | --- | --- | --- | --- |
| 0.015 nM | 100% | 0.066 nM | ≥ 200 µM | 0.01 nM | 0.027 nM | > 45 h | ≥ 200 µM | ≥ 200 µM | ≥ 200 µM | ≥ 200 µM | ≥ 200 µM | ≥ 200 µM | ≥ 200 µM | – | CC(C)C[C@H](NC(=O)[C@H](C)NC(=O)[C@H](C)NC(=O)[C@@H](NC(=O)[C@H](CO)NC(=O)[C@H](CC(C)C)NC(=O)[C@H](CCC(=O)O)NC(=O)[C@H](CO)NC(=O)[C@H](C)NC(=O)COCCOCCNC(=O)COCCOCCNC(=O)COCCOCCNC(=O)COCCOCCNC(=O)COCCOCCNC(=O)CC[C@H](NC(=O)CCCCCCCCCCCCCCCCCCC(=O)O)C(=O)O)[C@@H](C)O)C(=O)NCC(=O)N[C@@H](CCCNC(=N)N)C(=O)N[C@@H](CC(C)C)C(=O)N[C@@H](CO)C(=O)N[C@@H](C)C(=O)N[C@@H](CCC(=O)O)C(=O)N[C@@H](CC(C)C)C(=O)N[C@@H](Cc1cnc[nH]1)C(=O)N[C@@H](CCC(=O)O)C(=O)N[C@@H](CC(C)C)C(=O)N[C@@H](C)C(=O)N[C@H](C(=O)N[C@@H](CC(C)C)C(=O)N1CCC[C@H]1C(=O)N[C@@H](CCCNC(=N)N)C(=O)N[C@H](C(=O)N[C@@H](CCC(=O)O)C(=O)N[C@H](C(=O)NCC(=O)N[C@@H](CO)C(=O)NCC(=O)N[C@@H](CO)C(=O)N1CCC[C@H]1C(N)=O)[C@@H](C)O)[C@@H](C)O)[C@@H](C)O ({C20 diacid-γGlu-AEEA-AEEA-AEEA-AEEA-AEEA}-ASELSTAALGRLSAELHELATLPRTETGSGSP-NH2) | – |
| 0.05 nM | 100% | 0.094 nM | ≥ 200 µM | 0.04 nM | 0.073 nM | > 45 h | ≥ 200 µM | ≥ 200 µM | – | ≥ 200 µM | ≥ 200 µM | ≥ 200 µM | ≥ 200 µM | 1.36 nM | CC(C)C[C@H](NC(=O)[C@H](C)NC(=O)[C@H](C)NC(=O)[C@@H](NC(=O)[C@H](CO)NC(=O)[C@H](CC(C)C)NC(=O)[C@H](CCC(=O)O)NC(=O)[C@H](CO)NC(=O)[C@H](C)NC(=O)CC[C@H](NC(=O)CCCCCCCCCCCCCCCCCCC(=O)O)C(=O)O)[C@@H](C)O)C(=O)NCC(=O)N[C@@H](CCCNC(=N)N)C(=O)N[C@@H](CC(C)C)C(=O)N[C@@H](CO)C(=O)N[C@@H](C)C(=O)N[C@@H](CCC(=O)O)C(=O)N[C@@H](CC(C)C)C(=O)N[C@@H](Cc1cnc[nH]1)C(=O)N[C@@H](CCC(=O)O)C(=O)N[C@@H](CC(C)C)C(=O)N[C@@H](C)C(=O)N[C@H](C(=O)N[C@@H](CC(C)C)C(=O)N1CCC[C@H]1C(=O)N[C@@H](CCCNC(=N)N)C(=O)N[C@H](C(=O)N[C@@H](CCC(=O)O)C(=O)N[C@H](C(=O)NCC(=O)N[C@@H](CO)C(=O)NCC(=O)N[C@@H](CO)C(=O)N[C@@H](Cc1ccccc1)C(N)=O)[C@@H](C)O)[C@@H](C)O)[C@@H](C)O ({C20 diacid-γGlu}-ASELSTAALGRLSAELHELATLPRTETGSGSF-NH2) | – |
